Experimental data: patent publication US8507489B2, “Bicyclic triazoles as protein kinase modulators” (SGX Pharmaceuticals, Inc., priority 2006, dated 2013)

Key:
[1] = target: MAP2K1 (MEK1) (Homo sapiens, UniProt Q02750); experiment: SelectScreen Kinase Profiling MAP2K1; type: biochemical
Source text: (§1) SelectScreen™ is a trademark screening assay protocol for kinases developed by Invitrogen Corporation, Madison, Wis. Details on assay conditions can be found on the company's website.

[2] = target: ROS1 (Homo sapiens, UniProt P08922); experiment: SelectScreen Kinase Profiling ROS1; type: biochemical
Source text: as §1

[3] = target: RPS6KB1 (p70S6K) (Homo sapiens, UniProt P23443); experiment: SelectScreen Kinase Profiling RPS6KB1; type: biochemical
Source text: as §1

[4] = target: FLT3 D835Y (Homo sapiens, UniProt P36888, D835Y); experiment: SelectScreen Kinase Profiling FLT3 D835Y; type: biochemical
Source text: as §1

[5] = target: PTK2B (FAK2) (Homo sapiens, UniProt Q14289); experiment: SelectScreen Kinase Profiling PTK2B; type: biochemical
Source text: as §1

[6] = target: TEK (Tie2) (Homo sapiens, UniProt Q02763); experiment: SelectScreen Kinase Profiling TEK; type: biochemical
Source text: as §1

[7] = target: PIM1 (Homo sapiens, UniProt P11309); experiment: SelectScreen Kinase Profiling PIM1; type: biochemical
Source text: as §1

[8] = target: GSK3B (GSK3 beta) (Homo sapiens, UniProt P49841); experiment: SelectScreen Kinase Profiling GSK3B; type: biochemical
Source text: as §1

[9] = target: ABL1 T315I (Homo sapiens, UniProt P00519, T315I); experiment: SelectScreen Kinase Profiling ABL1 T315I; type: biochemical
Source text: as §1

[10] = target: KIT T670I (Homo sapiens, UniProt P10721, T670I); experiment: SelectScreen Kinase Profiling KIT T670I; type: biochemical
Source text: as §1

[11] = target: RET (Homo sapiens, UniProt P07949); experiment: SelectScreen Kinase Profiling RET; type: biochemical
Source text: as §1

[12] = target: EPHA2 (Homo sapiens, UniProt P29317); experiment: SelectScreen Kinase Profiling EPHA2; type: biochemical
Source text: as §1

[13] = target: PDGFRA T674I (Homo sapiens, UniProt P16234, T674I); experiment: SelectScreen Kinase Profiling PDGFRA T674I; type: biochemical
Source text: as §1

[14] = target: FES (FPS) (Homo sapiens, UniProt P07332); experiment: SelectScreen Kinase Profiling FES; type: biochemical
Source text: as §1

[15] = target: MERTK (cMER) (Homo sapiens, UniProt Q12866); experiment: SelectScreen Kinase Profiling MERTK; type: biochemical
Source text: as §1

[16] = target: ABL1 Y253F (Homo sapiens, UniProt P00519, Y253F); experiment: SelectScreen Kinase Profiling ABL1 Y253F; type: biochemical
Source text: as §1

[17] = target: CSF1R (FMS) (Homo sapiens, UniProt P07333); experiment: SelectScreen Kinase Profiling CSF1R; type: biochemical
Source text: as §1

[18] = target: AURKA (Aurora A) (Homo sapiens, UniProt O14965); experiment: SelectScreen Kinase Profiling AURKA; type: biochemical
Source text: as §1

[19] = target: EGFR (ErbB1) (Homo sapiens, UniProt P00533); experiment: SelectScreen Kinase Profiling EGFR; type: biochemical
Source text: as §1

[20] = target: CDK1/cyclin B (Homo sapiens, UniProt P06493); experiment: SelectScreen Kinase Profiling CDK1/cyclin B; type: biochemical
Source text: as §1

[21] = tested on: GTL16 tumors; experiment: GTL16 tumor xenograft model, tumor growth; type: in vivo; details: last day of treatment, nude mice
Procedure: Female athymic nude mice (nu/nu from Harlan) were 6-8 weeks old with a body weight range of 18-22 g at the beginning of the study. The animals had free access to food and water throughout the study. The mice were housed on irradiated Alpha-Dri® Bed-O-Cobs® Laboratory Animal Bedding in static micro isolator caging on a 12-hour light cycle at 70-74° F. and 40-60% humidity. All procedures involving animals were conducted in compliance with the NIH Guide for the Care and Use of Laboratory Animals and all protocols were approved by an Internal Animal Care and Use Committee (IACUC).
Xenografts were initiated from GTL-16 tumor cells cultured and maintained by an internal Cell Biology Department. Each test mouse received a subcutaneous injection of 4×10^6 cells suspended in 100 μL of serum free RPMI media. Tumors were randomized into treatment groups on Day 5 when the average tumor size reached approximately 150 mm^3. Each dose groups contained n=5 mice. Tumor volume was calculated using the formula:
[formula] where w=width and l=length in mm of the tumor. Tumor weight may be estimated with the assumption that 1 mg is equivalent to 1 mm^3 of tumor volume. Tumor Growth Inhibition (TGI) Analysis
TGI was calculated from the difference between the mean tumor volumes of vehicle-treated and drug-treated mice, expressed as a percentage. % TGI=Mean Tumor Volumecontrol−Mean Tumor Volumedrug-treated×100 […] Tumor Volumecontrol
The MTV is defined as the mean tumor volume (MTV) for the number of animals, n, remaining in the study on that day.

[22] = target: HCK (Homo sapiens, UniProt P08631); experiment: SelectScreen Kinase Profiling HCK; type: biochemical
Source text: as §1

[23] = target: FGFR3 (Homo sapiens, UniProt P22607); experiment: SelectScreen Kinase Profiling FGFR3; type: biochemical
Source text: as §1

[24] = target: AKT1 (PKB alpha) (Homo sapiens, UniProt P31749); experiment: SelectScreen Kinase Profiling AKT1; type: biochemical
Source text: as §1

[25] = target: PRKCD (PKC delta) (Homo sapiens, UniProt Q05655); experiment: SelectScreen Kinase Profiling PRKCD; type: biochemical
Source text: as §1

[26] = target: MAP4K4 (HGK) (Homo sapiens, UniProt O95819); experiment: SelectScreen Kinase Profiling MAP4K4; type: biochemical
Source text: as §1

[27] = target: GRK4 (Homo sapiens, UniProt P32298); experiment: SelectScreen Kinase Profiling GRK4; type: biochemical
Source text: as §1

[28] = target: IGF1R (Homo sapiens, UniProt P08069); experiment: SelectScreen Kinase Profiling IGF1R; type: biochemical
Source text: as §1

[29] = target: TYRO3 (RSE) (Homo sapiens, UniProt Q06418); experiment: SelectScreen Kinase Profiling TYRO3; type: biochemical
Source text: as §1

[30] = target: ALK (Homo sapiens, UniProt Q9UM73); experiment: SelectScreen Kinase Profiling ALK; type: biochemical
Source text: as §1

[31] = target: NTRK3 (TRKC) (Homo sapiens, UniProt Q16288); experiment: SelectScreen Kinase Profiling NTRK3; type: biochemical
Source text: as §1

[32] = target: IKBKB (IKK beta) (Homo sapiens, UniProt O14920); experiment: SelectScreen Kinase Profiling IKBKB; type: biochemical
Source text: as §1

Chain of NTRK3 (TRKC) (Q16288 32-839): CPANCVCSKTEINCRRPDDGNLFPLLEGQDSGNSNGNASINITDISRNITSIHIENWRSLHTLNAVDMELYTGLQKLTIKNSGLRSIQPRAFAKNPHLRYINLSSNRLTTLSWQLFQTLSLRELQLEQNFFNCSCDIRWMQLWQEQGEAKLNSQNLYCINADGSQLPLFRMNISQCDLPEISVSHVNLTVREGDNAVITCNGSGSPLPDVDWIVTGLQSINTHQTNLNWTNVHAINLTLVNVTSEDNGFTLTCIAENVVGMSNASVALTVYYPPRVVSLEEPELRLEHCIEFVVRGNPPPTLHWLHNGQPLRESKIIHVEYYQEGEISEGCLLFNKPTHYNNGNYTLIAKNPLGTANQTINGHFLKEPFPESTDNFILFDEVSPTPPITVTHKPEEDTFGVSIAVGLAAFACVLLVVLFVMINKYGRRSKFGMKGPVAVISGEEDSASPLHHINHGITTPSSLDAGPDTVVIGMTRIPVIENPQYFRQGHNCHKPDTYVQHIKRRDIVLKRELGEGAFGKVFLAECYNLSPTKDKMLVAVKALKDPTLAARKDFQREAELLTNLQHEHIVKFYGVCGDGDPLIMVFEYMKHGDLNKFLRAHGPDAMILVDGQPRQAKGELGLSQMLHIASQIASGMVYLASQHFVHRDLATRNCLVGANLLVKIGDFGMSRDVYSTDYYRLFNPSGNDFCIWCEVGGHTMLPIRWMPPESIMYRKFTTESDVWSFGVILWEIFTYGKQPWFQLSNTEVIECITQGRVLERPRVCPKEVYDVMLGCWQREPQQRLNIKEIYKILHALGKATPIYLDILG
Chain of RPS6KB1 (p70S6K) (P23443 whole entry): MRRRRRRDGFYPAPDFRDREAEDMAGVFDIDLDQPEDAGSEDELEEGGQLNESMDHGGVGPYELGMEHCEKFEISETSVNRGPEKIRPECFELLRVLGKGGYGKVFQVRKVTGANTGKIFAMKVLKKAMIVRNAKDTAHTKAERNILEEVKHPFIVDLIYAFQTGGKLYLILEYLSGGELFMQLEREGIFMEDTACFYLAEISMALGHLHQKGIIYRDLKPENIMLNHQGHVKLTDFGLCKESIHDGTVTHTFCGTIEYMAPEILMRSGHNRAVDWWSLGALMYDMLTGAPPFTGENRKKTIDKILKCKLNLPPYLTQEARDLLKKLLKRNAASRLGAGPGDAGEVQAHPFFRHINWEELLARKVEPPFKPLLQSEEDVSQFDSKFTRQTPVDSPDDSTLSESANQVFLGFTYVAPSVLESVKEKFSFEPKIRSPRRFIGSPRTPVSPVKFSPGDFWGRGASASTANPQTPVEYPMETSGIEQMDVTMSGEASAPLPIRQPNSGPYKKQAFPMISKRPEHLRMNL
Chain of AURKA (Aurora A) (O14965 whole entry): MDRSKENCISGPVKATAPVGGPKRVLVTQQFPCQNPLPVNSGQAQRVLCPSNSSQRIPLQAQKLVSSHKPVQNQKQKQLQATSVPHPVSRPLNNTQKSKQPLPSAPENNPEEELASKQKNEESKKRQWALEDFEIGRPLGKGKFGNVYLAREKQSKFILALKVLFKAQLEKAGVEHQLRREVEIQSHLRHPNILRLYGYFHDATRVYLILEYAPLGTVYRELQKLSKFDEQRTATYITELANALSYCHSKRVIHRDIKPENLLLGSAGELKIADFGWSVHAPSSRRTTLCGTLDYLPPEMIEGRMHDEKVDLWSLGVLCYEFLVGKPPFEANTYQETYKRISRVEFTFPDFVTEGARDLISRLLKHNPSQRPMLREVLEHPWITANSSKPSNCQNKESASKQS
Chain of EPHA2 (P29317 24-976): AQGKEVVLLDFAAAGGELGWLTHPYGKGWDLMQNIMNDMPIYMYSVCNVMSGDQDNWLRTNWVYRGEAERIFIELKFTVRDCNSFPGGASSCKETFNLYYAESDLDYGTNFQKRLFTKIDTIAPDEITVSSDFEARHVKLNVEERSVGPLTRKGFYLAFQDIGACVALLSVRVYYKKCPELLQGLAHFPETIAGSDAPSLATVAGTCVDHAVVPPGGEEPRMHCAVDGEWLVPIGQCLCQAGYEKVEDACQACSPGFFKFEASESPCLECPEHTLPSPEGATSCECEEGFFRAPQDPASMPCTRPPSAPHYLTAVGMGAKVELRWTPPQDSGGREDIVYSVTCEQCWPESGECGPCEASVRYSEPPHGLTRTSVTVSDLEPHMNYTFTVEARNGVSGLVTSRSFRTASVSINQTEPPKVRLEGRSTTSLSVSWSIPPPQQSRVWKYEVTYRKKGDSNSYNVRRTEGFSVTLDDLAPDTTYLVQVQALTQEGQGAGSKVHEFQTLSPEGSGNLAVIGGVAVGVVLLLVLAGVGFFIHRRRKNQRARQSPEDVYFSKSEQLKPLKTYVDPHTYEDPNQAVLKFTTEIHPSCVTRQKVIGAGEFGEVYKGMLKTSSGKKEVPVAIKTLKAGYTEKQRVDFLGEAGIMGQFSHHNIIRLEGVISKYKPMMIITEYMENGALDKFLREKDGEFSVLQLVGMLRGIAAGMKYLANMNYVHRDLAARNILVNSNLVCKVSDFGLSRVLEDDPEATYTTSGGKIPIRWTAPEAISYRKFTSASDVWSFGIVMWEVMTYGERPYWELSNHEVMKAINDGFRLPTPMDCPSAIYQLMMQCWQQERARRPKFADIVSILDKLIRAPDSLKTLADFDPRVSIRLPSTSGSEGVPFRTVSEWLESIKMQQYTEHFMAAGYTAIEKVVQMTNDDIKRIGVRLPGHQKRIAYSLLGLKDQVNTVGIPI
Chain of ALK (Q9UM73 19-1620): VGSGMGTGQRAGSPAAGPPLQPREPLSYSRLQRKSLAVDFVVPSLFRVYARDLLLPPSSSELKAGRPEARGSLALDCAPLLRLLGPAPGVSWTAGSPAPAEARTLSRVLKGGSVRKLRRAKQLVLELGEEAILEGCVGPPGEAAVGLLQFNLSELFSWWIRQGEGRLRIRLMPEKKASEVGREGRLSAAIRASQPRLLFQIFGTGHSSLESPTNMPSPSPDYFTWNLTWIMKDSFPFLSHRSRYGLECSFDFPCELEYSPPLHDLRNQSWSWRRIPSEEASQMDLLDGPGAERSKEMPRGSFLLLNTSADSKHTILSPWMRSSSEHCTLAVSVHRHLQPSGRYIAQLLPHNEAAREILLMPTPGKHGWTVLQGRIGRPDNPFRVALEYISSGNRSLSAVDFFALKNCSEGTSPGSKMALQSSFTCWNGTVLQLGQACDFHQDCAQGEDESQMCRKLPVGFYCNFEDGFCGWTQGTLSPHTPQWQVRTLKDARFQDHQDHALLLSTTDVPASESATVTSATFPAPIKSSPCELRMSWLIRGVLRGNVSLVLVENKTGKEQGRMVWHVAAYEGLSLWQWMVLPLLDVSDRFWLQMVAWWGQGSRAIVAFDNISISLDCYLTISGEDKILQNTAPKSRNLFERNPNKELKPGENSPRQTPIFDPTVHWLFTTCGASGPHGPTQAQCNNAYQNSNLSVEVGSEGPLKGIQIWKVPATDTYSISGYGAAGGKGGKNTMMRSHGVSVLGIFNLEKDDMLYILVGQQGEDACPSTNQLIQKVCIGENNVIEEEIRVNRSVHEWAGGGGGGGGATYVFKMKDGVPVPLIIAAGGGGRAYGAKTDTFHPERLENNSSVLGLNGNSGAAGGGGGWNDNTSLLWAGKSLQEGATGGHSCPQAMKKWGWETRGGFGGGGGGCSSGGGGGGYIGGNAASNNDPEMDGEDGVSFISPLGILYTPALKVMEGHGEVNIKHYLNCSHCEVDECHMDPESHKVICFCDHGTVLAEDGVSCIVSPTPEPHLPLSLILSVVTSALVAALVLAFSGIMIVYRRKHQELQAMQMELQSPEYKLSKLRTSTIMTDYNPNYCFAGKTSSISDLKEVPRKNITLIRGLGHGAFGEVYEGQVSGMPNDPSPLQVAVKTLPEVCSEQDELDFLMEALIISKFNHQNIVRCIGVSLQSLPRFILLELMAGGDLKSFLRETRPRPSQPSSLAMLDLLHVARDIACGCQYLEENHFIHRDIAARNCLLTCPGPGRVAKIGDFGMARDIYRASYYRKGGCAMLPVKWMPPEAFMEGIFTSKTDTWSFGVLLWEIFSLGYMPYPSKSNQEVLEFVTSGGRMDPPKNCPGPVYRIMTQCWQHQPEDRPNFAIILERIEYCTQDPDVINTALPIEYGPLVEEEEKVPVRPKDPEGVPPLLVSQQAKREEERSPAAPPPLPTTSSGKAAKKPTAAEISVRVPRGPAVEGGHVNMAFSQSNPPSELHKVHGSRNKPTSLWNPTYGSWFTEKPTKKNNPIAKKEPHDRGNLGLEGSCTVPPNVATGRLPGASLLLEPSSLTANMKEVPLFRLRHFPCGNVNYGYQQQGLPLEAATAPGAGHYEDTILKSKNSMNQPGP
Chain of IKBKB (IKK beta) (O14920 whole entry): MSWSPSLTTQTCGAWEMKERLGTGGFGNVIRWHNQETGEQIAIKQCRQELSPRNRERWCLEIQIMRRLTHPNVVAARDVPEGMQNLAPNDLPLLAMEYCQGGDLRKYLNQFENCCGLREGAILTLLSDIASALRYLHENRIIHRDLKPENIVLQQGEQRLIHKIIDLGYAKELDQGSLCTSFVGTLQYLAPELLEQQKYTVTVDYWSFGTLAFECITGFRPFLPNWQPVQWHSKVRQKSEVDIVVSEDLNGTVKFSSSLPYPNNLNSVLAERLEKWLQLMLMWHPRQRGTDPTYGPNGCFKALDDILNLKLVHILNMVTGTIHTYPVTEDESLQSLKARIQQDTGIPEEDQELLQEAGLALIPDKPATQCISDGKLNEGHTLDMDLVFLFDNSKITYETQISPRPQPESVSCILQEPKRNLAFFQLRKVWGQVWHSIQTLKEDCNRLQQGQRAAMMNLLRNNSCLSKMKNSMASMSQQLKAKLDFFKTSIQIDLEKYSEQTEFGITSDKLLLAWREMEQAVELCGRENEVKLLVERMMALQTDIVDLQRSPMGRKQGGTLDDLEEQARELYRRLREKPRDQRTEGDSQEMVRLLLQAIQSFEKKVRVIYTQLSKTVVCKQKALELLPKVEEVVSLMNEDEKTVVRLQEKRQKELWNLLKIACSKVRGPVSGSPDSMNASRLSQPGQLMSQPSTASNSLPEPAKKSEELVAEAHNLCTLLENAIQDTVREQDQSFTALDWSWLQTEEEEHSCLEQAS

inhibition at 1 µM [1] [%]	inhibition at 1 µM [2] [%]	inhibition at 1 µM [3] [%]	inhibition at 1 µM [4] [%]	inhibition at 1 µM [5] [%]	inhibition at 1 µM [6] [%]	inhibition at 1 µM [7] [%]	inhibition at 1 µM [8] [%]	inhibition at 1 µM [9] [%]	inhibition at 1 µM [10] [%]	inhibition at 1 µM [11] [%]	inhibition at 1 µM [12] [%]	inhibition at 1 µM [13] [%]	inhibition at 1 µM [14] [%]	inhibition at 1 µM [15] [%]	inhibition at 1 µM [16] [%]	inhibition at 1 µM [17] [%]	inhibition at 1 µM [18] [%]	inhibition at 1 µM [19] [%]	inhibition at 1 µM [20] [%]	SMILES	further results
16	7	3	8	6	8	4	5	11	-12	5	-23	-9	5	7	20	19	18	-2	5	Cn1cc(-c2ccc3nnc(Sc4ccc5ncccc5c4)n3n2)cn1 [Compound 4, 6-[6-(1-Methyl-1H-pyrazol-4-yl)-[1,2,4]triazolo[4,3-b]pyridazin-3-ylsulfanyl]-quinoline]	decrease of mean tumor volume compared to vehicle-treated group ([21]; 10 mg/kg PO Q12H, 14 consecutive days): 65%; decrease of mean tumor volume compared to vehicle-treated group ([21]; 20 mg/kg PO Q12H, 14 consecutive days): 75%; decrease of mean tumor volume compared to vehicle-treated group ([21]; 30 mg/kg PO Q12H, 14 consecutive days): 81%; decrease of mean tumor volume compared to vehicle-treated group ([21]; 60 mg/kg PO Q24H, 14 consecutive days): 75%; decrease of mean tumor volume compared to vehicle-treated group ([21]; 100 mg/kg PO Q12H, 14 consecutive days): 87%; inhibition at 1 µM [22]: 8%; inhibition at 1 µM [23]: -4%; inhibition at 1 µM [24]: 5%; inhibition at 1 µM [25]: 4%; inhibition at 1 µM [26]: -1%; inhibition at 1 µM [27]: 2%; inhibition at 1 µM [28]: -3%; inhibition at 1 µM [29]: 19%; inhibition at 1 µM [30]: -10%; inhibition at 1 µM [31]: 7%; inhibition at 1 µM [32]: -5%
3	41	5	35	12	4	0	1	47	4	21	2	-1	1	10	30	79	49	0	17	Cc1ccc2nnc(Sc3ccc4ncc(-c5cnn(C)c5)cc4c3)n2n1 [Compound 41, 3-(1-Methyl-1H-pyrazol-4-yl)-6-(6-methyl-[1,2,4]triazolo[4,3-b]pyridazin-3-ylsulfanyl)-quinoline]	decrease of mean tumor volume compared to vehicle-treated group ([21]; 1 mg/kg PO Q12H, 13 consecutive days): 42%; decrease of mean tumor volume compared to vehicle-treated group ([21]; 3 mg/kg PO Q12H, 13 consecutive days): 67%; decrease of mean tumor volume compared to vehicle-treated group ([21]; 10 mg/kg PO Q12H, 13 consecutive days): 80%; decrease of mean tumor volume compared to vehicle-treated group ([21]; 30 mg/kg PO Q12H, 13 consecutive days): 87%; inhibition at 1 µM [22]: 9%; inhibition at 1 µM [23]: 26%; inhibition at 1 µM [24]: -1%; inhibition at 1 µM [25]: 5%; inhibition at 1 µM [26]: 27%; inhibition at 1 µM [27]: -4%; inhibition at 1 µM [28]: 6%; inhibition at 1 µM [29]: 22%; inhibition at 1 µM [30]: 23%; inhibition at 1 µM [31]: 85%; inhibition at 1 µM [32]: 1%
